Reference: PubChem BioAssay AID248 (DTP/NCI, 2004)
Values joined by “and” are separate entries in the source; they are usually repeats but may differ in a detail not shown here. Identical values can stand only once. Inconclusive results and toxic doses are left out. Cut-off read from the data, not from the text of the source: active = T/C of 150% or more; inactive = T/C below 125%.

Test system: L1210 leukemia ip in BDF1 mice, survival T/C
Test: NCI In Vivo Anticancer Drug Screen. Data for tumor model L1210 Leukemia (intraperitoneal) in B6D2F1 (BDF1) mice
Details: endpoint: mean survival time, higher = longer survival
Procedure, shortened: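 Transplanted-tumor mice were given test agent; controls received vehicle only. Survival readings from the two groups were divided (treated over control).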

[1] = dose: 100.0 mg/kg/injection, schedule: Q04DX002 (ip), vehicle: Klucel (hydroxypropylcellulose) (HPC)
[2] = dose: 200.0 mg/kg/injection, schedule: Q04DX002 (ip), vehicle: Klucel (hydroxypropylcellulose) (HPC)
[3] = dose: 100.0 mg/kg/injection, schedule: Q04DX003 (ip), vehicle: saline with Tween-80
[4] = dose: 200.0 mg/kg/injection, schedule: Q04DX003 (ip), vehicle: saline with Tween-80
[5] = dose: 400.0 mg/kg/injection, schedule: Q04DX003 (ip), vehicle: saline with Tween-80
[6] = dose: 25.0 mg/kg/injection, schedule: Q04DX002 (ip), vehicle: saline
[7] = dose: 100.0 mg/kg/injection, schedule: Q04DX002 (ip), vehicle: saline
[8] = dose: 100.0 mg/kg/injection, schedule: Q04DX003 (ip), vehicle: saline
[9] = dose: 200.0 mg/kg/injection, schedule: Q04DX003 (ip), vehicle: saline
[10] = dose: 100.0 mg/kg/injection, schedule: Q01DX001 (ip), vehicle: carboxymethylcellulose (CMC)
[11] = dose: 200.0 mg/kg/injection, schedule: Q01DX001 (ip), vehicle: carboxymethylcellulose (CMC)
[12] = dose: 100.0 mg/kg/injection, schedule: Q01DX001 (ip), vehicle: Klucel (hydroxypropylcellulose) (HPC)
[13] = dose: 200.0 mg/kg/injection, schedule: Q01DX001 (ip), vehicle: Klucel (hydroxypropylcellulose) (HPC)
[14] = dose: 400.0 mg/kg/injection, schedule: Q01DX001 (ip), vehicle: Klucel (hydroxypropylcellulose) (HPC)
[15] = dose: 100.0 mg/kg/injection, schedule: Q01DX001 (ip), vehicle: saline with Tween-80
[16] = dose: 200.0 mg/kg/injection, schedule: Q01DX001 (ip), vehicle: other
[17] = dose: 100.0 mg/kg/injection, schedule: Q01DX009 (ip), vehicle: Klucel (hydroxypropylcellulose) (HPC)
[18] = dose: 100.0 mg/kg/injection, schedule: Q04DX003 (ip), vehicle: Klucel (hydroxypropylcellulose) (HPC)
[19] = dose: 200.0 mg/kg/injection, schedule: Q01DX009 (ip), vehicle: Klucel (hydroxypropylcellulose) (HPC)
[20] = dose: 200.0 mg/kg/injection, schedule: Q04DX003 (ip), vehicle: Klucel (hydroxypropylcellulose) (HPC)
[21] = dose: 400.0 mg/kg/injection, schedule: Q04DX003 (ip), vehicle: Klucel (hydroxypropylcellulose) (HPC)
[22] = dose: 50.0 mg/kg/injection, schedule: Q01DX001 (ip), vehicle: saline
[23] = dose: 100.0 mg/kg/injection, schedule: Q01DX009 (ip), vehicle: saline
[24] = dose: 200.0 mg/kg/injection, schedule: Q01DX009 (ip), vehicle: saline
[25] = dose: 50.0 mg/kg/injection, schedule: Q01DX009 (ip), vehicle: saline
[26] = dose: 50.0 mg/kg/injection, schedule: Q01DX001 (ip), vehicle: carboxymethylcellulose (CMC)

Measured: T/C

O=c1sc2c(s1)CCCC2
inactive: [1] 108 % of control | [2] 101 % of control | dose: 400.0 mg/kg/injection, schedule: Q04DX002 (ip), vehicle: Klucel (hydroxypropylcellulose) (HPC) 92 % of control

CCCN(CCC)C(=O)c1cccnc1
inactive: [3] 93 % of control | [4] 96 % of control | [5] 94 % of control

CN1CCC2(CC1)C(=O)N(Cc1ccccc1)C(=O)C2c1ccccc1 (stereo not given)
inactive: [6] 108 % of control | [1] 93 % of control | [7] 104 % of control and 118 % of control | [2] 86 % of control

CC(=O)Nc1ccc(N)cc1N
inactive: dose: 50.0 mg/kg/injection, schedule: Q04DX003 (ip), vehicle: saline 98 % of control | [3] 102 % of control | [8] 92 % of control and 89 % of control | [4] 115 % of control | [9] 98 % of control | [5] 100 % of control | dose: 400.0 mg/kg/injection, schedule: Q04DX003 (ip), vehicle: saline 89 % of control

Nc1cccc2c1[nH]c(=O)c1ccccc12
inactive: [10] 95 % of control | [11] 97 % of control | dose: 400.0 mg/kg/injection, schedule: Q01DX001 (ip), vehicle: carboxymethylcellulose (CMC) 97 % of control

O=C(O)c1ccccc1C(=O)OC1CC2CCC1C2 (stereo not given)
inactive: [12] 100 % of control | [13] 94 % of control | [14] 98 % of control

Nc1ncnc(N)c1NC(=O)/C=C/c1ccccc1
inactive: [15] 116 % of control | dose: 200.0 mg/kg/injection, schedule: Q01DX001 (ip), vehicle: saline with Tween-80 101 % of control

CCCCCCCCCCCCCCCc1cc(O)cc(O)c1
inactive: dose: 50.0 mg/kg/injection, schedule: Q01DX001 (ip), vehicle: other 88 % of control | [16] 95 % of control | dose: 400.0 mg/kg/injection, schedule: Q01DX001 (ip), vehicle: other 93 % of control

CCOc1ccn(C2OC(COC(C)=O)C(OC3OC(COC(C)=O)C(OC(C)=O)C(OC(C)=O)C3OC(C)=O)C(OC(C)=O)C2OC(C)=O)c(=O)n1 (stereo not given)
inactive: dose: 22.5 mg/kg/injection, schedule: Q01DX001 (ip), vehicle: carboxymethylcellulose (CMC) 120 % of control | dose: 45.0 mg/kg/injection, schedule: Q01DX001 (ip), vehicle: carboxymethylcellulose (CMC) 103 % of control | dose: 90.0 mg/kg/injection, schedule: Q01DX001 (ip), vehicle: carboxymethylcellulose (CMC) 100 % of control | dose: 180.0 mg/kg/injection, schedule: Q01DX001 (ip), vehicle: carboxymethylcellulose (CMC) 100 % of control

CN(Cc1ccccc1)C(=O)/C=C/c1ccccc1
inactive: [17] 93 % of control | [18] 94 % of control | [19] 96 % of control | [20] 96 % of control | [21] 89 % of control

COC(=O)C(CC/C(=N\Nc1ccc([N+](=O)[O-])cc1[N+](=O)[O-])c1ccccc1)C(=O)OC
inactive: dose: 25.0 mg/kg/injection, schedule: Q01DX001 (ip), vehicle: saline with Tween-80 95 % of control | dose: 50.0 mg/kg/injection, schedule: Q01DX001 (ip), vehicle: saline with Tween-80 88 % of control | [15] 91 % of control

CCCN(CCC)C[Si](C)(C)C
inactive: dose: 12.5 mg/kg/injection, schedule: Q01DX001 (ip), vehicle: saline 121 % of control | dose: 25.0 mg/kg/injection, schedule: Q01DX001 (ip), vehicle: saline 105 % of control | [22] 111 % of control

CNC(=S)N/N=C/c1ccc(N(C)CCC#N)cc1
inactive: [17] 96 % of control | [19] 93 % of control

O=c1ccn(C2CCCO2)c(=O)[nH]1 (stereo not given)
inactive: [22] 105 % of control | dose: 100.0 mg/kg/injection, schedule: Q01DX001 (ip), vehicle: saline 109 % of control | dose: 200.0 mg/kg/injection, schedule: Q01DX001 (ip), vehicle: saline 100 % of control | dose: 400.0 mg/kg/injection, schedule: Q01DX001 (ip), vehicle: saline 103 % of control

C=CCOCC(O)CN(C)CC1CCCO1 (stereo not given)
inactive: [23] 95 % of control | [8] 98 % of control | [24] 95 % of control | [9] 86 % of control

COC1N(C2CC(O)C(CO)O2)C(=O)NC(=O)C1(F)Br (stereo not given)
inactive: dose: 5.0 mg/kg/injection, schedule: Q01DX009 (ip), vehicle: saline 123 % of control | dose: 10.0 mg/kg/injection, schedule: Q01DX009 (ip), vehicle: saline 112 % of control | dose: 20.0 mg/kg/injection, schedule: Q01DX009 (ip), vehicle: saline 122 % of control | dose: 20.0 mg/kg/injection, schedule: Q04DX003 (ip), vehicle: saline 105 % of control | dose: 40.0 mg/kg/injection, schedule: Q04DX003 (ip), vehicle: saline 102 % of control | [25] 103 % of control | dose: 80.0 mg/kg/injection, schedule: Q04DX003 (ip), vehicle: saline 117 % of control | [23] 98 % of control | dose: 160.0 mg/kg/injection, schedule: Q04DX003 (ip), vehicle: saline 108 % of control | [24] 102 % of control | dose: 400.0 mg/kg/injection, schedule: Q01DX009 (ip), vehicle: saline 94 % of control

O=C(NCCl)Nc1ccccc1
inactive: [6] 106 % of control | dose: 50.0 mg/kg/injection, schedule: Q04DX002 (ip), vehicle: saline 106 % of control | dose: 100.0 mg/kg/injection, schedule: Q04DX002 (ip), vehicle: saline + alcohol 100 % of control | [7] 100 % of control

CC(C)(C)NC=O
inactive: [25] 98 % of control | dose: 75.0 mg/kg/injection, schedule: Q01DX009 (ip), vehicle: saline 93 % of control | dose: 75.0 mg/kg/injection, schedule: Q04DX003 (ip), vehicle: saline 106 % of control | dose: 150.0 mg/kg/injection, schedule: Q04DX003 (ip), vehicle: saline 96 % of control

CC(C)P(=O)(OCc1ccccc1)C(C)C
inactive: [17] 97 % of control | [19] 94 % of control | dose: 400.0 mg/kg/injection, schedule: Q01DX009 (ip), vehicle: Klucel (hydroxypropylcellulose) (HPC) 89 % of control

CCCCCCCCCCCCCCCCCC(O)CCCCCCCCCCCCCCCCC
inactive: dose: 100.0 mg/kg/injection, schedule: Q04DX003 (ip), vehicle: acetone 94 % of control | dose: 200.0 mg/kg/injection, schedule: Q04DX003 (ip), vehicle: acetone 96 % of control | dose: 400.0 mg/kg/injection, schedule: Q04DX003 (ip), vehicle: acetone 86 % of control

Cc1ccc(S(=O)(=O)N(CCCBr)c2ccc(C3(CCl)OCCO3)cc2)cc1
inactive: [12] 91 % of control | [13] 91 % of control | [14] 91 % of control

CC(=O)Nc1ccc2c(c1)Cc1cc(Br)ccc1-2
inactive: [18] 100 % of control | [20] 100 % of control | [21] 103 % of control

CNc1ncnc2c1ccn2C1OC(CO)C(O)C1O (stereo not given)
inactive: [26] 110 % of control

O=C(O)C1=C(C(=O)O)C2C=CC1N2Cc1ccccc1
inactive: dose: 100.0 mg/kg/injection, schedule: Q01DX001 (ip), vehicle: other 96 % of control | [16] 102 % of control

S=C1NCCS1
inactive: [26] 113 % of control | dose: 50.0 mg/kg/injection, schedule: Q01DX009 (ip), vehicle: Klucel (hydroxypropylcellulose) (HPC) 110 % of control | [10] 102 % of control | [17] 108 % of control | [18] 108 % of control | [11] 94 % of control | [19] 110 % of control | [20] 113 % of control
